From PubChem BioAssay AID1259407 (Chemical Carcinogenesis Research Information System (CCRIS), 2018) come the findings set out here.

Calls of active or inactive are those of the source. The rule behind the calls is not given here.

The test system of this series is CCRIS mutagenicity, Ames/micronucleus/aberration tests. The series is described as follows: CCRIS mutagenicity studies. The source says: The CCRIS database contains chemical records with carcinogenicity, mutagenicity, tumor promotion, and tumor inhibition test results. It was developed by the National Cancer Institute (NCI). Data are derived from studies cited in primary journals, current awareness tools, NCI reports, and other sources. Test results have been reviewed by experts in carcinogenesis and mutagenesis.
CCRIS provides historical information from the years 1985 - 2011. It is no longer updated.
This is an archive assay for CCRIS mutagenicity studies.

[1] abbreviates: Test System: AMES SALMONELLA TYPHIMURIUM, Strain/Indicator: TA98, Metabolic Activation: NONE, Method: STANDARD PLATE.
[2] abbreviates: Test System: AMES SALMONELLA TYPHIMURIUM, Strain/Indicator: TA98, Metabolic Activation: RAT, LIVER, S-9, AROCLOR 1254, Method: STANDARD PLATE.
Where [3] appears, read: Test System: AMES SALMONELLA TYPHIMURIUM, Strain/Indicator: TA100, Metabolic Activation: NONE, Method: STANDARD PLATE.
[4] abbreviates: Test System: AMES SALMONELLA TYPHIMURIUM, Strain/Indicator: TA1538, Metabolic Activation: NONE, Method: STANDARD PLATE.
Setting [5] is: Test System: AMES SALMONELLA TYPHIMURIUM, Strain/Indicator: TA98, Metabolic Activation: NONE, Method: PREINCUBATION
[6] abbreviates: Test System: AMES SALMONELLA TYPHIMURIUM, Strain/Indicator: TA100, Metabolic Activation: NONE, Method: PREINCUBATION
The mark [7] stands for this setting: Test System: AMES SALMONELLA TYPHIMURIUM, Strain/Indicator: TA100, Metabolic Activation: S-9, Method: STANDARD PLATE.

Consider `CCC(C)(C)OC`, for which the mutagenic call by setting is: under setting [1], “inactive; negative”; under setting [2], “inactive; negative”; under setting [3], “inactive; negative”; (Test System: AMES SALMONELLA TYPHIMURIUM, Strain/Indicator: TA100, Metabolic Activation: RAT, LIVER, S-9, AROCLOR 1254, Method: STANDARD PLATE) “inactive; negative”; (Test System: AMES SALMONELLA TYPHIMURIUM, Strain/Indicator: TA1535, Metabolic Activation: NONE, Method: STANDARD PLATE) “inactive; negative”; (Test System: AMES SALMONELLA TYPHIMURIUM, Strain/Indicator: TA1535, Metabolic Activation: RAT, LIVER, S-9, AROCLOR 1254, Method: STANDARD PLATE) “inactive; negative”. For the same compound, the mutagenic call (Test System: AMES SALMONELLA TYPHIMURIUM, Strain/Indicator: TA1537, Metabolic Activation: NONE, Method: STANDARD PLATE) was “inactive; negative”; the mutagenic call (Test System: AMES SALMONELLA TYPHIMURIUM, Strain/Indicator: TA1537, Metabolic Activation: RAT, LIVER, S-9, AROCLOR 1254, Method: STANDARD PLATE) is “inactive; negative”; the mutagenic call under setting [4] is “inactive; negative”; the mutagenic call (Test System: AMES SALMONELLA TYPHIMURIUM, Strain/Indicator: TA1538, Metabolic Activation: RAT, LIVER, S-9, AROCLOR 1254, Method: STANDARD PLATE) was “inactive; negative”.
In the case of `C[CH2][Pb]([Cl])([CH2]C)[CH2]C`, the mutagenic call is “inactive; negative” (Test System: AMES SALMONELLA TYPHIMURIUM, Strain/Indicator: TA98, Metabolic Activation: HAMSTER, LIVER, S-9, AROCLOR 1254 (10%), Method: PREINCUBATION); “inactive; negative” under setting [5]; “inactive; negative” (Test System: AMES SALMONELLA TYPHIMURIUM, Strain/Indicator: TA98, Metabolic Activation: RAT, LIVER, S-9, AROCLOR 1254 (10%), Method: PREINCUBATION); “inactive; negative” (Test System: AMES SALMONELLA TYPHIMURIUM, Strain/Indicator: TA100, Metabolic Activation: HAMSTER, LIVER, S-9, AROCLOR 1254 (10%), Method: PREINCUBATION); “inactive; negative” under setting [6]; “inactive; negative” (Test System: AMES SALMONELLA TYPHIMURIUM, Strain/Indicator: TA100, Metabolic Activation: RAT, LIVER, S-9, AROCLOR 1254 (10%), Method: PREINCUBATION). In addition, the mutagenic call reads like this: (Test System: AMES SALMONELLA TYPHIMURIUM, Strain/Indicator: TA1535, Metabolic Activation: HAMSTER, LIVER, S-9, AROCLOR 1254 (10%), Method: PREINCUBATION) “inactive; negative”; (Test System: AMES SALMONELLA TYPHIMURIUM, Strain/Indicator: TA1535, Metabolic Activation: NONE, Method: PREINCUBATION) “inactive; negative”; (Test System: AMES SALMONELLA TYPHIMURIUM, Strain/Indicator: TA1535, Metabolic Activation: RAT, LIVER, S-9, AROCLOR 1254 (10%), Method: PREINCUBATION) “inactive; negative”; (Test System: AMES SALMONELLA TYPHIMURIUM, Strain/Indicator: TA1537, Metabolic Activation: HAMSTER, LIVER, S-9, AROCLOR 1254 (10%), Method: PREINCUBATION) “inactive; negative”; (Test System: AMES SALMONELLA TYPHIMURIUM, Strain/Indicator: TA1537, Metabolic Activation: NONE, Method: PREINCUBATION) “inactive; negative”; (Test System: AMES SALMONELLA TYPHIMURIUM, Strain/Indicator: TA1537, Metabolic Activation: RAT, LIVER, S-9, AROCLOR 1254 (10%), Method: PREINCUBATION) “inactive; negative”.
With `c1cc2cnncc2cn1`, the mutagenic call was “inactive; negative” under setting [5]; “inactive; negative” (Test System: AMES SALMONELLA TYPHIMURIUM, Strain/Indicator: TA98, Metabolic Activation: RAT, LIVER, S-9, PCB, Method: PREINCUBATION); “inactive; negative” under setting [6]; “inactive; negative” (Test System: AMES SALMONELLA TYPHIMURIUM, Strain/Indicator: TA100, Metabolic Activation: RAT, LIVER, S-9, PCB, Method: PREINCUBATION).
As for `CCCCCC(=O)N=c1sn(C(=O)CCCCC)c2ccc([N+](=O)[O-])cc12`, under setting [7], the mutagenic call is “active; positive”.
As to `C[C@@H]1C[C@@]2(O[C@H]2C)C(=O)O[C@@H]2CCN3CC=C(COC(=O)[C@]1(C)O)[C@H]23`, the mutagenic call (Test System: UDS RAT HEPATOCYTES, Strain/Indicator: THY INCORP, Metabolic Activation: NONE, Method: AUTORADIOGRAPHY) is “active; positive”.
Consider `ONc1ccc2c(c1)Cc1ccccc1-2`, for which the mutagenic call is “active; positive” under setting [1]; “active; positive” under setting [2]; “active; positive” (Test System: AMES SALMONELLA TYPHIMURIUM, Strain/Indicator: TA98, Metabolic Activation: S-9, Method: STANDARD PLATE); “active; positive” under setting [3]; “active; positive” under setting [7]; “active; positive” under setting [4]. Besides, the mutagenic call (Test System: AMES SALMONELLA TYPHIMURIUM, Strain/Indicator: YG1020, Metabolic Activation: NONE, Method: PREINCUBATION) is “active; positive”; the mutagenic call (Test System: AMES SALMONELLA TYPHIMURIUM, Strain/Indicator: YG1024, Metabolic Activation: NONE, Method: PREINCUBATION) is “active; positive”; the mutagenic call (Test System: AMES SALMONELLA TYPHIMURIUM, Strain/Indicator: YG1025, Metabolic Activation: NONE, Method: PREINCUBATION) was “active; positive”; the mutagenic call (Test System: AMES SALMONELLA TYPHIMURIUM, Strain/Indicator: YG1029, Metabolic Activation: NONE, Method: PREINCUBATION) is “active; positive”; the mutagenic call (Test System: CHINESE HAMSTER OVARY, Strain/Indicator: CHO-K1-BH4 (HGPRT), Metabolic Activation: NONE, Method: SUSPENSION) was “active; positive”; the mutagenic call (Test System: E. COLI, Strain/Indicator: WP2, Metabolic Activation: NONE, Method: PREINCUBATION) is “active; positive”. For the same compound, under “Test System: E. COLI, Strain/Indicator: WP2 UVRA, Metabolic Activation: NONE, Method: PREINCUBATION”, the mutagenic call was “active; positive”.
In the case of `Nc1ccc(N)c(S(=O)(=O)O)c1`, the mutagenic call under setting [5] was “inactive; negative”; the mutagenic call (Test System: AMES SALMONELLA TYPHIMURIUM, Strain/Indicator: TA98, Metabolic Activation: RAT, LIVER, S-9, AROCLOR 1254, Method: PREINCUBATION) is “inactive; negative”; the mutagenic call under setting [6] was “inactive; negative”; the mutagenic call (Test System: AMES SALMONELLA TYPHIMURIUM, Strain/Indicator: TA100, Metabolic Activation: RAT, LIVER, S-9, AROCLOR 1254, Method: PREINCUBATION) was “inactive; negative”; the mutagenic call (Test System: UDS RODENT HEPATOCYTES, Strain/Indicator: THY INCORP (NON-S-PHASE), Metabolic Activation: NONE, Method: AUTORADIOGRAPHY) is “active; positive”.
As to `O=C(O)Cc1ccc(Cl)cc1`, the mutagenic call under setting [5] is “inactive; negative”; the mutagenic call (Test System: AMES SALMONELLA TYPHIMURIUM, Strain/Indicator: TA98, Metabolic Activation: RAT LIVER S-9, PCB, Method: PREINCUBATION) was “inactive; negative”; the mutagenic call under setting [6] was “inactive; negative”; the mutagenic call (Test System: AMES SALMONELLA TYPHIMURIUM, Strain/Indicator: TA100, Metabolic Activation: RAT LIVER S-9, PCB, Method: PREINCUBATION) is “inactive; negative”; the mutagenic call (Test System: AMES SALMONELLA TYPHIMURIUM, Strain/Indicator: TA104, Metabolic Activation: NONE, Method: PREINCUBATION) is “inactive; negative”; the mutagenic call (Test System: AMES SALMONELLA TYPHIMURIUM, Strain/Indicator: TA104, Metabolic Activation: RAT LIVER S-9, PCB, Method: PREINCUBATION) is “inactive; negative”. The mutagenic call (Test System: E.COLI, Strain/Indicator: WP2 UVRA, Metabolic Activation: NONE, Method: PREINCUBATION) was “inactive; negative” and the mutagenic call (Test System: E.COLI, Strain/Indicator: WP2 UVRA, Metabolic Activation: RAT LIVER S-9, PCB, Method: PREINCUBATION) was “inactive; negative”.
Regarding `CNP(=S)(N1CC1)N1CC1`, where the note is “Test System: AMES SALMONELLA TYPHIMURIUM, Strain/Indicator: G46, Metabolic Activation: HOST MEDIATED, Method: STANDARD PLATE”, the mutagenic call is “active; positive”.
